Peptide text beside a SMILES is read from it.
Test: Thermal sterilization of 200 g/l alanyl-glutamine solution; degradation products determined after sterilization
Format: physicochemical
Settings: sterilization at 121° C., 124° C. and 127° C., pH 5 to 6, constant F0 12-12.5
Protocol: The sterilization temperature is in this connection preferably ≧124° C. and particularly preferably ≧127° C. The pH is preferably between 5 and 6.5. It is possible to reduce the holding times for the thermal sterilization on use of higher temperatures. Under the preferred conditions, distinctly smaller amounts of degradation products are found in the sterilized product (example 3).
A solution of 200 g/l alanyl-glutamine was sterilized at temperatures of 121° C., 124° C. and 127° C. The pH was varied between pH 5, pH 5.5 and pH 6. […] The F0 value describes the sterilization efficiency and corresponds to the holding time at 121.11° C. For sterilization at higher temperatures, the holding times were reduced to maintain a constant F0 value. After the sterilization, the amounts of the degradation products of the dipeptide alanyl-glutamine, cyclo-alanyl-glutamine and L-pyro-alanyl-glutamine were determined. Lower values for these degradation products are a direct indication of the stability of the dipeptide during the sterilization.

C[C@H](N)C(=O)N[C@@H](CCC(N)=O)C(=O)O [alanyl-glutamine, L-Alanyl-L-glutamine] (H-Ala-Gln-OH)
values for the degradation products (stability of the dipeptide during sterilization): fell at higher temperature

From patent publication US8377876B2, “Pediatric amino acid solution for parenteral nutrition” (Fresenius Kabi Deutschland GmbH, priority 2006, dated 2013)
